Test results taken from patent US5103018A, “Mitomycin derivatives” (Kyowa Hakko Kogyo Kabushiki Kaisha, priority 1986, dated 1992).
≈ marks a conversion by molar mass, not a printed value.

How the values were obtained:
Sarcoma 180 solid tumour = experiment: animal or person; format: in vivo, mice (ddy strain); conditions: for ED50: Mus musculus, Sarcoma-180, ip, 168 h, read-out: ED50 ip
From the text: (§1) Certain compounds were selected from Compounds I. The following Table 4 indicates anti-tumour activity against Sarcoma 180 solid tumour (ED50), acute toxicity (LD50) and effects on the peripheral leucocytes (WBC4000) of each compound.
(1) Effect against Sarcoma 180 solid tumour:
5×10^6 cells of Sarcoma 180 solid tumour cells were abdominally implanted into male mice of ddy strain. 7 days after this, ascites cells were sampled. The cells were washed once with a sterilized physiological solution of sodium chloride and were used to prepare a cell suspension containing 5×10^7 cells per ml. On each occasion, 0.1 ml of the cell suspension was subcutaneously implanted into the right armpit of a male mouse (ddy strain; body weight 20±2 g). 24 hours after the implantation of the tumour cells, the test compound which was dissolved in a physiological solution of sodium chloride with or without addition of Tween 80 was abdominally administered to each mouse of a group consisting of 5 animals at a does of 0.1-0.2 ml. The anti-tumour activity was determined as follows:
7 days after the implantation, the major axis (a) and the minor axis (b) of the tumour were measured to calculate a value of "a×b^2 /2" which corresponds to the volume of the tumour. The anti-tumour activity was expressed by T/C viz. the ratio of the volume of the tumours (T) of the group of animals administered with the test compound to the corresponding volume of tumours (C) of the untreated animals.
(2) Determination of ED50 :
The term ED50 denotes the administered amount needed for reducing the volume of Sarcoma 180 solid tumours in the animals to 50% on the basis of the corresponding volume of Sarcoma 180 solid tumours in control (untreated) animals.
On graph paper, T/C was indicated by an arithmetic scale on the longitudinal axis and the administered amount of test compound was indicated by a logarithmic scale on the lateral axis.

[1] = test system: Staphylococcus aureus ATCC 6583P; experiment: Minimum inhibitory concentration, agar dilution method, SA; format: cell-based; conditions: Staphylococcus aureus, ATCC6583P, pH 7, read-out: minimum inhibitory concentration, SA
From the text: (§2) Certain Compounds I were selected. Table 3 indicates their anti-bacterial activities in terms of their minimum inhibitory concentration (μg/ml), determined by the agar dilution method effected at a pH of 7.0. In this table, the microorganisms used are abbreviated as follows:
SA: Staphylococcus aureus ATCC 6583P

ddy mice = experiment: Acute toxicity; format: in vivo; conditions: for C.I. (LD50/ED50) (in words): in comparison with mitomycin C
Experimental: as §1
(§3) Each animal of the test group consisting of 5 ddy mice was once administered (i.p.) with a test compound. […] The LD50 was determined by Behren Korber's method.

Acute toxicity = format: in vivo, mice (ddy); conditions: mouse, in vivo, ip; for LD50 at 336 h: ddy mice, single i.p., 14 days, Behren Korber's method; for selectivity ratio: read-out: (C.I.)* = (LD50/ED50)/[(LD50/ED50) of MMC1]
Experimental: as §1, §3

P388 Leukemia = experiment: Effect upon Leukemia P 388; format: in vivo, mouse (CDF1); conditions: single i.p., 33 days
Experimental: (5) Effect upon Leukemia P 388:
Ascites cells were collected from P388 Leukemia-carrying mouse (DBA/2) 7 days after the implantation. The number of the cells of P388 Leukemia in the sample was counted. A physiological solution of sodium chloride was sterilized and used to prepare a cell suspension containing 5×10^6 tumour cells per ml. On each occasion, 0.2 ml of the suspension containing 1×10^6 cells was implanted into the abdominal cavity of each mouse (CDF1; body weight 20~25 g). 24 hours after implantation, the test compound was once given to each mouse of a test group consisting of 6 mice by abdominal injection.
The activity of the test samples was determined by the ratio of the average survival days of the treated animals to the average survival days of untreated animals viz. ILS % (Increased Life Span).

[2] = test system: Klebsiella pneumoniae ATCC 10031; experiment: microbe, parasite or virus in culture; format: cell-based; conditions: ATCC10031, pH 7, read-out: minimum inhibitory concentration, KP
From the text: Certain Compounds I were selected. […] In this table, the microorganisms used are abbreviated as follows:
KP: Klebsiella pneumoniae ATCC 10031

peripheral leucocytes = experiment: in vivo; format: in vivo, mice (ddy strain); conditions: for WBC4000/ED50 (in words): in comparison with mitomycin C
Experimental: as §1
(§4) (4) Effect upon the number of the peripheral leucocytes:
(§5) Sarcoma 180 solid tumour cells (5×10^6) were subcutaneously implanted into the right armpit of each mouse (body weight 20±2 g) of a group consisting of 5 male mice (ddy strain). 24 hours after implantation,a test compound was abdominally administered to each mouse. 4 days later, blood (each 0.02 ml) was collected from the suborbital plexus vein of each tumour-carrying mouse. The collected sample of blood was dispersed in 9.98 ml of Cell-kit Seven solution. One drop of saponin solution was added to the sample to dissolve erythrocytes and then a microcell counter was used to measure the number of leucocytes. On graph paper, the number of leucocytes was indicated on the y-axis by an arithmetic scale and the does of the test compound was indicated on the x-axis by a logarithmic scale.
(§6) The relationship between the number of peripheral leucocytes and the dosage of the test compound was plotted to obtain WBC4000 viz. the dosage corresponding to […] per mm^3 (about half of the number of leucocytes of normal mice).

in vivo = format: in vivo, mice (ddy strain); conditions: mouse, in vivo, ip; read-out: (WBC4000/ED50)* = (WBC4000/ED50)/[(WBC4000/ED50) of MMC1]
Experimental: as §1, §4, §5, §6

[3] = Equilibration between mitomycin-type and albomitomycin-type substance in aqueous solution; format: physicochemical; conditions: aqueous solution (5 mg/ml), 25° C., 24 hours
Experimental: In the case wherein the compound of Example 1 described hereinafter was equilibrated by allowing to stand in an aqueous solution (5 mg/ml) at a temperature of 25° C. for 24 hours, the molar ratio of the albomitomycin-type substance was 8.5%.

[4] = test system: Proteus vulgaris ATCC 6897; experiment: Minimum inhibitory concentration, agar dilution method, PV; format: cell-based; conditions: Proteus vulgaris, ATCC6897, pH 7, read-out: minimum inhibitory concentration, PV
From the text: as §2
PV: Proteus vulgaris ATCC 6897

Solubility in water = format: physicochemical; conditions: for solubility: water
Escherichia coli ATCC 26 = experiment: Minimum inhibitory concentration, agar dilution method, EC; format: cell-based; conditions: Escherichia coli, ATCC26, pH 7, read-out: minimum inhibitory concentration, EC
From the text: as §2
EC: Escherichia coli ATCC 26

[5] = test system: Streptococcus faecalis ATCC 10541; experiment: Minimum inhibitory concentration, agar dilution method, SF; format: cell-based; conditions: Enterococcus faecalis, ATCC10541, pH 7, read-out: minimum inhibitory concentration, SF
From the text: as §2
SF: Streptococcus faecalis ATCC 10541

Lipophilicity = format: physicochemical; conditions: in comparison with mitomycin C
[6] = Stability of isolated compound; format: physicochemical

| Structure (SMILES) | ED50 (Sarcoma 180 solid tumour) [mg/kg] | C.I. (LD50/ED50) (in words) (ddy mice) | LD50 at 336 h (Acute toxicity) [mg/kg] | selectivity ratio (Acute toxicity) | WBC4000/ED50 (in words) (peripheral leucocytes) | selectivity ratio (in vivo) | lipophilicity (in words) (Lipophilicity) | other results |
| --- | --- | --- | --- | --- | --- | --- | --- | --- |
| CO[C@@]12[C@H](COC(N)=O)C3=C(C(=O)C(C)=C(NCCSSCCNC(=O)CC[C@H](N)C(=O)O)C3=O)N1C[C@@H]1N[C@@H]12 [Compound 1, 7-N-[2-[[2-(N^5 -L-glutamino)ethyl]dithio]ethyl]mitomycin C] | 2.7 | very high | 22.5 | 2.58 | very high | 4.12 |  | MIC [1]: 0.8 µg/mL (≈ 1.34 µM); ILS* (ratio of ILS % to that of mitomycin C) (P388 Leukemia; dose 25 mg/kg): > 2.30; MIC [2]: 0.4 µg/mL (≈ 0.668 µM); molar ratio of the albomitomycin-type substance at equilibrium [3]: 8.5%; MIC [4]: 0.8 µg/mL (≈ 1.34 µM); water-solubility (in words) (Solubility in water): good; solubility (Solubility in water): > 20 mg/mL; MIC (Escherichia coli ATCC 26): > 50 µg/mL; MIC [5]: 1.6 µg/mL (≈ 2.67 µM) |
| CO[C@@]12[C@H](COC(N)=O)C3=C(C(=O)C(C)=C(NCCSSCCNC(=O)C[C@H](N)C(=O)O)C3=O)N1C[C@@H]1N[C@@H]12 [Compound 6, 7-N-[2-[[2-(N^4 -L-asparagino)ethyl]dithio]ethyl]mitomycin C] | 5 |  | 26.3 | 1.81 |  | 2.38 |  | MIC [1]: 0.8 µg/mL (≈ 1.37 µM); MIC [2]: 0.8 µg/mL (≈ 1.37 µM); MIC [4]: 0.8 µg/mL (≈ 1.37 µM); solubility (Solubility in water): > 20 mg/mL; MIC (Escherichia coli ATCC 26): > 50 µg/mL; MIC [5]: 3.1 µg/mL (≈ 5.3 µM) |
| CO[C@@]12[C@H](COC(N)=O)C3=C(C(=O)C(C)=C(NCCSSCC(=O)O[C@H]4CC[C@H]5[C@@H]6CCc7cc(OC(=O)c8ccccc8)ccc7[C@H]6CC[C@]45C)C3=O)N1C[C@@H]1N[C@@H]12 [Compound 26, 7-N-[2-[[[[17β-(3-benzoyloxy-1,3, 5(10)-estratrienyl)oxy]carbonyl]methyl]dithio]ethyl]mitomycin C] | 5 | superior to mitomycin C | 18.8 | 1.27 | superior to mitomycin C | 2.57 | superior to mitomycin C | ILS* (ratio of ILS % to that of mitomycin C) (P388 Leukemia; dose 6.25 mg/kg): > 1.08 |
| CO[C@@]12[C@H](COC(N)=O)C3=C(C(=O)C(C)=C(NCCSSCCC(=O)O[C@H]4CC[C@H]5[C@@H]6CCc7cc(OC(=O)c8ccccc8)ccc7[C@H]6CC[C@]45C)C3=O)N1C[C@@H]1N[C@@H]12 [Compound 27, 7-N-[2-[[2-[[17β-(3-benzoyloxy-1,3, 5(10)-estratrienyl)oxy]carbonyl]ethyl]dithio]ethyl]mitomycin C] | 4.6 | superior to mitomycin C | 22.5 | 1.63 | superior to mitomycin C | 2.43 | superior to mitomycin C | ILS* (ratio of ILS % to that of mitomycin C) (P388 Leukemia; dose 12.5 mg/kg): > 1.53 |
| CC1=C(NCCSSCC(=O)O[C@H]2CC[C@H]3[C@@H]4CCc5cc(OC(=O)c6ccccc6)ccc5[C@H]4CC[C@]23C)C(=O)C2=C(C1=O)N1C[C@H]3[C@H](N3C)[C@]1(O)[C@H]2COC(N)=O (stereo partly drawn) [Compound 28, 7-N-[2-[[[[17β-(3-benzoyloxy-1,3, 5(10)-estratrienyl)oxy]carbonyl]methyl]dithio]ethyl]mitomycin D] | 9.9 | superior to mitomycin C | 75 | 2.53 | superior to mitomycin C | 1.43 | superior to mitomycin C | ILS* (ratio of ILS % to that of mitomycin C) (P388 Leukemia; dose 25 mg/kg): > 1.67 |
| CC1=C(/C=C/C(C)=C/C=C/C(C)=C/C(=O)NCCSSc2ccccn2)C(C)(C)CCC1 [Compound "m", N-2-(2-pyridyldithio)ethylretinamide] |  |  |  |  |  |  |  | stability (in words) [6]: unstable |
| Cc1c(C)c2c(c(C)c1OC(=O)CCC(=O)NCCSSc1ccccn1)CC[C@@](C)(CCC[C@H](C)CCC[C@H](C)CCCC(C)C)O2 [Compound "n"] |  |  |  |  |  |  |  | stability (in words) [6]: relatively stable |
| CO[C@]12[C@H](COC(N)=O)[C@H]3C(=O)C(N)=C(C)C(=O)[C@]34N3[C@H]1[C@@H]3CN24 [MM-C 2, albomitomycin C, reference compound] |  |  |  |  |  |  |  | ED50 ip (Sarcoma 180 solid tumour; ddy mice, i.p. 24 h after implantation, 50% reduction of tumour volume at day 7): 5.4 mg/kg; LD50 ip (ddy mice; ddy mice, single i.p., 14 days, Behren Korber's method): < 12.0 mg/kg; (C.I.)* = (LD50/ED50)/[(LD50/ED50) of MMC1] (ddy mice; relative to mitomycin C, ip): 1.16; (WBC4000/ED50)* = (WBC4000/ED50)/[(WBC4000/ED50) of MMC1] (peripheral leucocytes; relative to mitomycin C, ip, 4 days after dosing): 0.95 |
